Drawing on paper PMC9030254, “Target Hopping from Protein Kinases to PXR: Identification of Small-Molecule Protein Kinase Inhibitors as Selective Modulators of Pregnane X Receptor from TüKIC Library” (Cells, 2022), this text covers Residual activity and inhibition for two compounds.

Common to all, as to experiment: Kinase profiling
Common to all, as to type: biochemical

In assay [1] the target is T1, MARK4 (Homo sapiens, UniProt Q96L34).
T1 construct: purchased ProQinase (Freiburg, Germany)
T1 sequence (Q96L34 1-752): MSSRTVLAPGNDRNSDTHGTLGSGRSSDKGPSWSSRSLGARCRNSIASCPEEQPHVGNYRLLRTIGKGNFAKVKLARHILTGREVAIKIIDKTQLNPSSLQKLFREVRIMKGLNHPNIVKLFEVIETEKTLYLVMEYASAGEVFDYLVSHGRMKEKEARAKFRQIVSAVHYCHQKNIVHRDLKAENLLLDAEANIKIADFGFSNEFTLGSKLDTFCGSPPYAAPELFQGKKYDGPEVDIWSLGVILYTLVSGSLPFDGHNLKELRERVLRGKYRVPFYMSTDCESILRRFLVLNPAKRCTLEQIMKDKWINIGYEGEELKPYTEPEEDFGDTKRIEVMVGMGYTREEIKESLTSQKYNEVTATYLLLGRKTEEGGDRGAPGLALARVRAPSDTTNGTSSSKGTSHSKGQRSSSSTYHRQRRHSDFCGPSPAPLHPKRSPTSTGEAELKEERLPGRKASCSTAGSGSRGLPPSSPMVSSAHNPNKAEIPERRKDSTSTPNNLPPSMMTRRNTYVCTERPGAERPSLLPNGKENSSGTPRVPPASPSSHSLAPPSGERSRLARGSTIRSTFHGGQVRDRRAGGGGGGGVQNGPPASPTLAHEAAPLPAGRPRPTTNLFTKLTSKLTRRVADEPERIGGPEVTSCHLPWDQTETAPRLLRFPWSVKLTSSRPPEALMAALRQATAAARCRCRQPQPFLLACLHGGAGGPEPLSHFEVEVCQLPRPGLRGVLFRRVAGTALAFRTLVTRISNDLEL
As to the method:
(§1) The analysis was performed by ProQinase (Freiburg, Germany).

The target in assay [2] is T2, GSG2 (Homo sapiens, UniProt Q8TF76).
T2 construct: purchased ProQinase (Freiburg, Germany)
T2 sequence (Q8TF76 1-798): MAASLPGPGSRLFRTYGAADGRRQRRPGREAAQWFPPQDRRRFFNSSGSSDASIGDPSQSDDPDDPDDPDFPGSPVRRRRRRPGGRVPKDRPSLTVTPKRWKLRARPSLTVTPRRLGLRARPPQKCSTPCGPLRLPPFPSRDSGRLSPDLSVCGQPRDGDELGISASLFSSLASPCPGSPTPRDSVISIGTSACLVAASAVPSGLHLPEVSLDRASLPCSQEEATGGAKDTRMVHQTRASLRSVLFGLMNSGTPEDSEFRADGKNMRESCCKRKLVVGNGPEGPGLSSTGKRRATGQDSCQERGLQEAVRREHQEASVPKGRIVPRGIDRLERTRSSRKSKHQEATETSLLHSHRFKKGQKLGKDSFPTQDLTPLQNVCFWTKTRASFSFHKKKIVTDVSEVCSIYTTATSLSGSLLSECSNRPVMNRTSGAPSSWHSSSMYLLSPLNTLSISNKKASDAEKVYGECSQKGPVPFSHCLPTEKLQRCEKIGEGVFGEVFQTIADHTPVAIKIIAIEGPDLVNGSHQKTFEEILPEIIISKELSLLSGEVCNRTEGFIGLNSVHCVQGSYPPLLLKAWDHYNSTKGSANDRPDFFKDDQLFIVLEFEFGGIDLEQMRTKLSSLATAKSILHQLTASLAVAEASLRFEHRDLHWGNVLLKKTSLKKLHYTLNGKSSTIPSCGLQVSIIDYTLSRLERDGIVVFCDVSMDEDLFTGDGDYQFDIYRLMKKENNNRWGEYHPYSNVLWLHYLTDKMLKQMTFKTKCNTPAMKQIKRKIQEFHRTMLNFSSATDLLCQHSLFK
As to the method:
as §1

For assay [3], the target named is T3, PKCgamma (Homo sapiens, UniProt P05129).
T3 construct: purchased ProQinase (Freiburg, Germany)
As to the method:
as §1

For assay [4], the target named is T4, IKKepsilon (Homo sapiens, UniProt Q14164).
T4 construct: purchased ProQinase (Freiburg, Germany)
T4 sequence (Q14164 1-716): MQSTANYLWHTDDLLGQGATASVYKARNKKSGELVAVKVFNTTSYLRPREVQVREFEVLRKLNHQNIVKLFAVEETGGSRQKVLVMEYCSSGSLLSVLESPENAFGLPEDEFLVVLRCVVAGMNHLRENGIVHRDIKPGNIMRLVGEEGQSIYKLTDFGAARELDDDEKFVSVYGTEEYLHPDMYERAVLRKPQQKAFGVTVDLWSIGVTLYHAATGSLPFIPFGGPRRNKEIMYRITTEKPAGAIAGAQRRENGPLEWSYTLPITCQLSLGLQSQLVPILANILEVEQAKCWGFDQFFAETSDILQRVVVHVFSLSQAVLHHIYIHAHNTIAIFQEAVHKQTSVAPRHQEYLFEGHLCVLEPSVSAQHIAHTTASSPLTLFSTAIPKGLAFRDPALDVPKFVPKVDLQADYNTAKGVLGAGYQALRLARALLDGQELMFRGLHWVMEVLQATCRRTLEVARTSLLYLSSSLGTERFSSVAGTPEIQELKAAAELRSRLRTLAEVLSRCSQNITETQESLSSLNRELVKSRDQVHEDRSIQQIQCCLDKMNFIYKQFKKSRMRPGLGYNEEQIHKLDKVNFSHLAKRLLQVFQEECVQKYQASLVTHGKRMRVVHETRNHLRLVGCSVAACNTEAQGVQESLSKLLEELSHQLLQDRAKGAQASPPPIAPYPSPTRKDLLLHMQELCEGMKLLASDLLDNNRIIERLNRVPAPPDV
As to the method: as §1

Assay [5] has as its target T5, BMPR1A (Homo sapiens, UniProt P36894).
T5 construct: purchased ProQinase (Freiburg, Germany)
As to the method: as §1

Assay [6] has as its target T6, FGFR1 (Homo sapiens, UniProt P11362).
T6 construct: purchased ProQinase (Freiburg, Germany)
As to the method:
as §1

Assay [7] addresses T7, MAPKAPK2 (Homo sapiens, UniProt P49137).
T7 construct: purchased ProQinase (Freiburg, Germany)
The method, then:
as §1

In assay [8] the target is T8, CAMK2D (Homo sapiens, UniProt Q13557).
T8 construct: purchased ProQinase (Freiburg, Germany)
The method, then: as §1

Assay [9] has as its target T9, ERK1 (Homo sapiens, UniProt P27361).
T9 construct: purchased ProQinase (Freiburg, Germany)
As to the method:
as §1

For assay [10], the target named is T10, SRC (Homo sapiens, UniProt P12931).
T10 construct: purchased ProQinase (Freiburg, Germany)
As to the method:
as §1

The target in assay [11] is T11, BRAF (Homo sapiens, UniProt P15056).
T11 construct: purchased ProQinase (Freiburg, Germany)
The method, then:
as §1

The structures appear in SMILES notation.

T5 sequence (P36894 24-532): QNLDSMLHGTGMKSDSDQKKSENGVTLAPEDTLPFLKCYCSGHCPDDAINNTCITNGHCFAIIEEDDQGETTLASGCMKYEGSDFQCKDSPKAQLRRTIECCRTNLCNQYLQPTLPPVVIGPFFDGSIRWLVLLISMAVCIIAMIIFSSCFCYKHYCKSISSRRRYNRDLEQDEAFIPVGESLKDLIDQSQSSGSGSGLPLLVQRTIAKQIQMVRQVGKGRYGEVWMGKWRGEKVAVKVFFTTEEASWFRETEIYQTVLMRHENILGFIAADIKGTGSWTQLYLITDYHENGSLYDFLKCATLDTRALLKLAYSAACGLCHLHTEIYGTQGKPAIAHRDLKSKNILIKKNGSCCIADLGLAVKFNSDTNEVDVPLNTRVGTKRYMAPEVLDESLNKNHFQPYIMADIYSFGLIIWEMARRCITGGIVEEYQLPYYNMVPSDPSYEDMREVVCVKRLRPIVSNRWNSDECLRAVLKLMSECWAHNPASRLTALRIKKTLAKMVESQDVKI
T9 sequence (P27361 whole entry): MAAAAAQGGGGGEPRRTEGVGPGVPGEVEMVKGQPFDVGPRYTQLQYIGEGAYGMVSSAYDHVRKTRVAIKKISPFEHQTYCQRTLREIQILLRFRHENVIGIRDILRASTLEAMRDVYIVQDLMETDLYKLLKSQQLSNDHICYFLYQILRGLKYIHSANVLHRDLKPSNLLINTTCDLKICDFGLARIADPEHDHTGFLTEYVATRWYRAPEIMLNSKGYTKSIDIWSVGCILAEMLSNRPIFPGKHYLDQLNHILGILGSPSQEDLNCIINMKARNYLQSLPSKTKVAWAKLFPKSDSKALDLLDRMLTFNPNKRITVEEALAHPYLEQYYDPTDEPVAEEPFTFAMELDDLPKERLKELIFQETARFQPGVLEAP
T11 sequence (P15056 whole entry): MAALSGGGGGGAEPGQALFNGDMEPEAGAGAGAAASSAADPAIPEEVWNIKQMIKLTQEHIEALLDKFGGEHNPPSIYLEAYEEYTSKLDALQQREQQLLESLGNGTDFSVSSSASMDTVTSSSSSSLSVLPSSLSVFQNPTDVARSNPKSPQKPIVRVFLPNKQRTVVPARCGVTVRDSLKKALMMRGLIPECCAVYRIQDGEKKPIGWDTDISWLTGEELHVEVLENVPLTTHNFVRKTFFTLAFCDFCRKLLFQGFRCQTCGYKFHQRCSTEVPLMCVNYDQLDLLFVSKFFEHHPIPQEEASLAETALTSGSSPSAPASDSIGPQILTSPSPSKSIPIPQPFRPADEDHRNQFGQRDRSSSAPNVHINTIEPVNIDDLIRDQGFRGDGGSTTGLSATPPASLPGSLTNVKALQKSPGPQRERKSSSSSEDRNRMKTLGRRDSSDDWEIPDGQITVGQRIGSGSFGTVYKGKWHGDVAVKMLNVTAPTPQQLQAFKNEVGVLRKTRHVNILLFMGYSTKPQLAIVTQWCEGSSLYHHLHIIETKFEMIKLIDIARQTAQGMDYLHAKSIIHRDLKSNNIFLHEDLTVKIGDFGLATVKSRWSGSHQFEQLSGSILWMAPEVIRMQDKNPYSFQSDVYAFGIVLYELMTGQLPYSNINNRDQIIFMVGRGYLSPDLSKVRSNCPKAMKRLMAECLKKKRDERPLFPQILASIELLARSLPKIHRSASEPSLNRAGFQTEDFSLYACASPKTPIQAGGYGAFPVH
T10 sequence (P12931 whole entry): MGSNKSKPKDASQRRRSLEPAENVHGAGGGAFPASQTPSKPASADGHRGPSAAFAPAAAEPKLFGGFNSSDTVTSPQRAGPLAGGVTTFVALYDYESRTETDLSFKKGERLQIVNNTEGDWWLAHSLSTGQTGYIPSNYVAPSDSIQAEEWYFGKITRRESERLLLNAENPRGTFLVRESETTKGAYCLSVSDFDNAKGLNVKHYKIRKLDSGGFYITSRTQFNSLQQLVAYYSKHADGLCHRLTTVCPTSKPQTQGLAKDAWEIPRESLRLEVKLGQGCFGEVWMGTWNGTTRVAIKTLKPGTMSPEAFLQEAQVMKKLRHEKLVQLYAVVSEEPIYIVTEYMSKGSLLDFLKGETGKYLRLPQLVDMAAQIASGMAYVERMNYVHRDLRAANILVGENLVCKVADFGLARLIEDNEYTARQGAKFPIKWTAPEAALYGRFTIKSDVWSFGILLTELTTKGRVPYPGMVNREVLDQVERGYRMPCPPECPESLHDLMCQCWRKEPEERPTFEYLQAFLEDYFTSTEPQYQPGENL
T7 sequence (P49137 whole entry): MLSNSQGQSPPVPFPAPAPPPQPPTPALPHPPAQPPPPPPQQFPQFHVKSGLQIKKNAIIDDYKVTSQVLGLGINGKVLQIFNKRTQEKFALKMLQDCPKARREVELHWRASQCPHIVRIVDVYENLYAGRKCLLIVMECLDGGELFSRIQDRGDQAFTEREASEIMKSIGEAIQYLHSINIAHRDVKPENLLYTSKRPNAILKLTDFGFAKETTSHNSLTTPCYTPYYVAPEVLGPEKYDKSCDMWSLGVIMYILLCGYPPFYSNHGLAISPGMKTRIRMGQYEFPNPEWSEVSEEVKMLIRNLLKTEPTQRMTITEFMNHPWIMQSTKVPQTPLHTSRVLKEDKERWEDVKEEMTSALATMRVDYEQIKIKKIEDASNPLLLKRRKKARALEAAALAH
T8 sequence (Q13557 whole entry): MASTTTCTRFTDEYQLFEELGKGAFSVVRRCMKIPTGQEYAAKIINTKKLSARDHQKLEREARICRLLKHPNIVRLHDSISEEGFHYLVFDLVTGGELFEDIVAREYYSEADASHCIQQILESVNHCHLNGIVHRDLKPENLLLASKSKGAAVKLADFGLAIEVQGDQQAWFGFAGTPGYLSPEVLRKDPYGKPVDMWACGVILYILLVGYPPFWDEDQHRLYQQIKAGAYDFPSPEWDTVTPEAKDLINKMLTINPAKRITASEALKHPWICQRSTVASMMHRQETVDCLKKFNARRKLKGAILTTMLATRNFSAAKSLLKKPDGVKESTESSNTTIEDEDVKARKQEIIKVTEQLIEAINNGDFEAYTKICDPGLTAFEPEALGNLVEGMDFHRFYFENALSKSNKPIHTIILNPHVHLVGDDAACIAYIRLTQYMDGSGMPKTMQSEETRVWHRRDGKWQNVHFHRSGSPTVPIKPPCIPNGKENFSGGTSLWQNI
T6 sequence (P11362 22-822): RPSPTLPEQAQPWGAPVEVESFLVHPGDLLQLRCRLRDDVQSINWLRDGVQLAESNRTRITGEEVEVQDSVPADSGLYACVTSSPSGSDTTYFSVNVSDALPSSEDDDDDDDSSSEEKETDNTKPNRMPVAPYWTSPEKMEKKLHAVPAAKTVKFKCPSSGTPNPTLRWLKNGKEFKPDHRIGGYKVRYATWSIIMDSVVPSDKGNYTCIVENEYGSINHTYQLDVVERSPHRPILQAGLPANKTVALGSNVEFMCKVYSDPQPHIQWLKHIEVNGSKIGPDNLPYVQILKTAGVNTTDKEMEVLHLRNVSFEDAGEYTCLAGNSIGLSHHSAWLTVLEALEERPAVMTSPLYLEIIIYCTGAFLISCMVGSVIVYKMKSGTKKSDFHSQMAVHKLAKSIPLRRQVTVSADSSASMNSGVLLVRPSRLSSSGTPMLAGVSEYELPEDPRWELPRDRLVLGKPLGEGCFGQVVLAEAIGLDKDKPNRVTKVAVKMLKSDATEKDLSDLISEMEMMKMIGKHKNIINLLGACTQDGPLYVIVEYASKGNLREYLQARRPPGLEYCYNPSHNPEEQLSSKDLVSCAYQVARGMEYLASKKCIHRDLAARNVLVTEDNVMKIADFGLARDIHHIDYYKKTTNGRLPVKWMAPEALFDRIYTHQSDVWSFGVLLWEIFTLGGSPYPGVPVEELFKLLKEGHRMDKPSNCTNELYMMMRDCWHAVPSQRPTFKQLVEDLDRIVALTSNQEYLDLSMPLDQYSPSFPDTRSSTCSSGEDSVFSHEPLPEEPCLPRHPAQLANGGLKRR

Consider `O=C(Cc1ccccc1)Nc1ccc(F)c(Nc2ccc3c(c2)CCCCC3=O)c1` [Compound 100], for which the Residual activity in assay [1] (1.0E-05 M) was 94 % of control; in assay [1] (1.0E-06 M), 99 % of control; in [2] (1.0E-05 M) it was 78 % of control; in assay [2] (1.0E-06 M), 92 % of control; in assay [3] (1.0E-05 M) it was 78 % of control; in [3] (1.0E-06 M), 77 % of control. Besides, the Residual activity was 101 % of control in assay [4] (1.0E-05 M); 103 % of control in [4] (1.0E-06 M); 82 % of control in assay [5] (1.0E-05 M); 101 % of control in assay [5] (1.0E-06 M); 78 % of control in assay [6] (1.0E-05 M); 93 % of control in [6] (1.0E-06 M). For the same compound, the Residual activity in assay [7] (1.0E-05 M) is 77 % of control; in assay [7] (1.0E-06 M), 121 % of control; in [8] (1.0E-05 M) it was 90 % of control; in [8] (1.0E-06 M), 103 % of control; in [9] (1.0E-05 M), 99 % of control; in assay [9] (1.0E-06 M), 99 % of control. In addition, the Residual activity in [10] (1.0E-05 M) is recorded as 105 % of control; in assay [10] (1.0E-06 M), 117 % of control; in assay [11] (1.0E-05 M), 25 % of control; in assay [11] (1.0E-06 M), 58 % of control. The same compound came in with an inhibition at 10 µM in [11] not below 50%.

As to `O=C(Nc1ccc(F)c(Nc2ccc3c(c2)CCCCC3=O)c1)c1cccc(F)c1` [Compound 109], the Residual activity is 91 % of control in [1] (1.0E-05 M); 102 % of control in assay [1] (1.0E-06 M); 68 % of control in assay [2] (1.0E-05 M); 93 % of control in assay [2] (1.0E-06 M); 63 % of control in assay [3] (1.0E-05 M); 81 % of control in assay [3] (1.0E-06 M). Also, the Residual activity in assay [4] (1.0E-05 M) is recorded as 92 % of control; in assay [4] (1.0E-06 M), 95 % of control; in assay [5] (1.0E-05 M), 88 % of control; in assay [5] (1.0E-06 M), 92 % of control; in assay [6] (1.0E-05 M) it was 79 % of control; in assay [6] (1.0E-06 M) it was 93 % of control. Also, the Residual activity in assay [7] (1.0E-05 M) is 78 % of control; in assay [7] (1.0E-06 M), 101 % of control; in assay [8] (1.0E-05 M) it was 88 % of control; in [8] (1.0E-06 M), 92 % of control; in assay [9] (1.0E-05 M), 102 % of control; in assay [9] (1.0E-06 M), 100 % of control. Moreover, the Residual activity is listed as 100 % of control in assay [10] (1.0E-05 M), 107 % of control in assay [10] (1.0E-06 M), 39 % of control in assay [11] (1.0E-05 M) and 67 % of control in assay [11] (1.0E-06 M). This compound also showed an inhibition at 10 µM in assay [11] not below 50%.
